Target: T1, human bradykinin 1 receptor (B1R) (Homo sapiens, UniProt P46663)
T1 construct: expressed in transfected cells; host or cells: CHO K1 cells
T1 sequence (P46663 1-353): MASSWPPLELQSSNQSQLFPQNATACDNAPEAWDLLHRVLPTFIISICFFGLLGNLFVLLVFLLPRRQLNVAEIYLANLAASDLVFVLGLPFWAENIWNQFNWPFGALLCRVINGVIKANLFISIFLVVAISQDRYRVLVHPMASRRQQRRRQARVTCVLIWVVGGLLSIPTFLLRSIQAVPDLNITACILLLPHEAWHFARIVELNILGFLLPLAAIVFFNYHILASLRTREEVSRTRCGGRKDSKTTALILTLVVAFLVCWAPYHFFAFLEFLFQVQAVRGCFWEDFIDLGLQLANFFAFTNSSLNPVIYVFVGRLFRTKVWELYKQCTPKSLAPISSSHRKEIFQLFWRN
Assay: Functional investigation on the human bradykinin 1 receptor (B1R), Ca2+ FLIPR assay in CHO K1 hB1R cells
Format: cell-based
Conditions: B1R antagonism human; test substance 10 μM; Ca2+ FLIPR, CHO K1 hB1R cells
How it was run: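 Cells were dye-loaded with Fluo-4 plus probenecid, then test substances added and Ca2+ influx compared with agonist control for % activation. After 10-20 min, EC80 agonist (Lys-Des-Arg9-bradykinin human; Des-Arg9-bradykinin rat) was applied; suppression gave % inhibition and IC50 values.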

In order of falling “B1R Ant. h [10 μM] % Inhibition” value:
1. COc1ccc(S(=O)(=O)N(C)CCOCC(=O)NCC2CCC(C(CCc3ccccc3)N(C)C)CC2)cc1 (stereo not drawn) [Example 550]  62%
2. COc1cc(C)c(S(=O)(=O)N(CCOCC(=O)NCCC2CCC(C(c3ccc(F)cc3)N(C)C)CC2)Cc2ccccc2)c(C)c1C (stereo not drawn) [Example 554]  23%
3. CN(C)C(CCc1ccccc1)C1CCC(CNC(=O)COCC2CCCN(S(=O)(=O)c3ccccc3)C2)CC1 (stereo not drawn) [Example 544]  22%
4. COc1ccc(S(=O)(=O)N(C)CCOCC(=O)NC2CCC(C(c3ccc(F)cc3)N(C)C)CC2)cc1OC (stereo not drawn) [Example 548]  6%
5. COc1ccc(S(=O)(=O)N2CCCCC2COCC(=O)NCC2CCC(C(c3ccc(F)cc3)N(C)C)CC2)cc1OC (single isomer, unassigned) [Example 537]  −15%

Same assay, conditions: CHO-K1, B1R antagonism human; test substance 10 μM; Ca2+ FLIPR, CHO K1 hB1R cells; read-out: B1R Ant. h [10 μM] % Inhibition

In order of rising inhibition at 10 µM:
1. CN(C)C(c1cccs1)C1CCC(CCNC(=O)COCC2CCCN(S(=O)(=O)c3ccccc3)C2)CC1 (stereo not drawn) [Example 115, N-(2-(4-((dimethylamino)(thiophen-2-yl)methyl)cyclohexyl)ethyl)-2-((1-(phenylsulfonyl)piperidin-3-yl)methoxy)acetamide]  10%
2. CN(C)C(c1ccccc1)C1CCC(CNC(=O)COCCN(C)S(=O)(=O)c2ccc(Cl)cc2)CC1 (stereo not drawn) [Example 110, 2-(2-(4-chloro-N-methylphenylsulfonamido)ethoxy)-N-((4-((dimethylamino) (phenyl)methyl)cyclohexyl)methyl)acetamide]  21%
3. COc1cc(C)c(S(=O)(=O)N2CCCC(OCC(=O)NCCC3CCC(C(c4cccs4)N(C)C)CC3)C2)c(C)c1C (stereo not drawn) [Example 130, N-(2-(4-((dimethylamino)(thiophen-2-yl)methyl)cyclohexyl)ethyl)-2-(1-(4-methoxy-2,3,6-trimethylphenylsulfonyl)piperidin-3-yloxy)acetamide]  30%
4. COc1cc(C)c(S(=O)(=O)N2CCC(OCC(=O)NC3CCC(C(c4cccs4)N(C)C)CC3)C2)c(C)c1 (stereo not drawn) [Example 98, N-(4-((dimethylamino)(thiophen-2-yl)methyl)cyclohexyl)-2-(1-(4-methoxy-2,6-dimethylphenylsulfonyl)pyrrolidin-3-yloxy)acetamide]  64%
